Patent publication US7514455B2, “Inhibitors against complex II of electron transport system” (The Kitasato Institute, priority 2002, dated 2009)
Where two headings read alike, the source gives them in different places.

Key:
Assay type in all cases: biochemical
[1] = biological target: T1, bovine heart complex II (succinate-ubiquinone oxidoreductase) (Bos taurus, UniProt P35720+Q3T189+Q95123); assay: Inhibition of succinate dehydrogenase activity of bovine heart complex II (DCIP reduction)
T1 construct: of the bovine heart, mitochondria prepared according to the method of S. Takamiya et al; from tissue; host or cells: bovine heart mitochondria
T1 sequence (P31039 44-665 partner): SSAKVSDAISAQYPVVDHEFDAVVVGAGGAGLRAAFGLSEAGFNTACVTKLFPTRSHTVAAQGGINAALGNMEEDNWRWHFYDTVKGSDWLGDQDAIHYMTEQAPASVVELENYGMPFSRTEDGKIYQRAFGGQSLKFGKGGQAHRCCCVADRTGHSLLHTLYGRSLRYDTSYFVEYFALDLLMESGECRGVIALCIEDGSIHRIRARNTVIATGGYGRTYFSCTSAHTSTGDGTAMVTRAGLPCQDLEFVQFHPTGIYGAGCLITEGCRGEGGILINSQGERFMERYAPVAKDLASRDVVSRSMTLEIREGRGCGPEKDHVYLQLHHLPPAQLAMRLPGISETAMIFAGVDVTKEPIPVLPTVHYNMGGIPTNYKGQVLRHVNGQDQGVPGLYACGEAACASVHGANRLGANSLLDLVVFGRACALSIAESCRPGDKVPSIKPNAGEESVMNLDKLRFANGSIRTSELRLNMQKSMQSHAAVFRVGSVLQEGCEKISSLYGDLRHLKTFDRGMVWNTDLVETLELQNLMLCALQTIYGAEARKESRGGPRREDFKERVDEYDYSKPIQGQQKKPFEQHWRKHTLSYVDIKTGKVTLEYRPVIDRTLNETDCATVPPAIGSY
T1 sequence (Q3T189 29-280): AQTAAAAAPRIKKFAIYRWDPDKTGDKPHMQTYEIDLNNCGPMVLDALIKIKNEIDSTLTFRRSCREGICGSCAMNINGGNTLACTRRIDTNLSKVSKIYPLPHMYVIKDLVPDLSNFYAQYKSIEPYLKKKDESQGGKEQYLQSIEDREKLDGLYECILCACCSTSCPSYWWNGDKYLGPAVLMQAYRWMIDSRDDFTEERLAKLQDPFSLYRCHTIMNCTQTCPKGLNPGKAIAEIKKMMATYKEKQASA
T1 sequence (P35720 30-169): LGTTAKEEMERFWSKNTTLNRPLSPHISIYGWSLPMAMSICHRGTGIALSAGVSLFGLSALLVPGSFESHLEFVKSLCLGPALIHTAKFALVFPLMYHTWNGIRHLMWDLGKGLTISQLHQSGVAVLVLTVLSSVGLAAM
T1 sequence (Q95123 56-158): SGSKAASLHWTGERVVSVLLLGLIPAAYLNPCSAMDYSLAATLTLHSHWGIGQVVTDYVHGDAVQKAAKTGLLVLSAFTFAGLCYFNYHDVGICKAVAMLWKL
Experimental: With regard to the complex II (succinate-ubiquinone oxidoreductase) of the bovine heart, mitochondria prepared according to the method of S. Takamiya et al. (Developmental changes in the respiratory chain of Ascaris mitochondria, Biochim. Biophys. Acta, 1141, 65-71, 1993) were used. Succinate dehydrogenase activity of the complex II was measured by changes of maximum absorption, which was specific to the electron acceptor (DCIP), from oxidized form of 2,6-dichlorophenolindophenol (DCIP, Sigma Inc.) to reduced form with the addition of succinate.
With regard to the complex II of the bovine heart, mitochondria prepared according to the same method described in the referential example 1 was used. Succinate dehydrogenase activity of the complex II was measured by changes of maximum absorption, which was specific to the electron acceptor (DCIP), from oxidized form of DCIP to reduced form with the addition of succinate. […] Reaction rate was measured by that the formation rate of reduced form of DCIP (amM^−1 1 cm^−1: 21) which accepted electron from succinate was measured at absorption changes of 600 nm. Activity was indicated by molar numbers of DCIP reduced per minute. Potassium cyanide, final concentration of 10 mM, was added due to necessity for prevention of leakage of reduction activity by inhibiting terminal oxidase.
With regard to the complex II (succinate-ubiquinone oxidoreductase) of the bovine heart, mitochondria prepared according to the same method described in the referential example 1 was used. Succinate dehydrogenase activity of the complex II was measured by changes of maximum absorption, which was specific to the electron acceptor (DCIP), from oxidized form of DCIP to reduced form with the addition of succinate. […] Reaction rate was measured by that the formation rate of reduced form of DCIP (amM^−1 1 cm^−1: 21) which accepted electron from succinate was measured at absorption changes of 600 nm. Activity was indicated by molar numbers of DCIP reduced per minute. Potassium cyanide, final concentration of 10 mM, was added due to necessity for prevention of leakage of reduction activity by inhibiting terminal oxidase.
With regard to the complex II of the bovine heart, mitochondria prepared according to the same method described in the referential example 1 was used. Succinate dehydrogenase activity of the complex II was measured by changes of maximum absorption, which was specific to the electron acceptor (DCIP), from oxidized form of DCIP to reduced form with the addition of succinate.

Ascaris suum complex II = biological target: T2, Ascaris suum complex II (Ascaris suum, UniProt O44074+P92506+P92507); assay: Inhibition of succinate dehydrogenase activity of Ascaris suum complex II (DCIP reduction)
T2 construct: the purified complex II prepared according to the method of F. Saruta et al; from tissue; complex II purified by the method of Saruta et al. 1995
T2 sequence (Q33862 19-645): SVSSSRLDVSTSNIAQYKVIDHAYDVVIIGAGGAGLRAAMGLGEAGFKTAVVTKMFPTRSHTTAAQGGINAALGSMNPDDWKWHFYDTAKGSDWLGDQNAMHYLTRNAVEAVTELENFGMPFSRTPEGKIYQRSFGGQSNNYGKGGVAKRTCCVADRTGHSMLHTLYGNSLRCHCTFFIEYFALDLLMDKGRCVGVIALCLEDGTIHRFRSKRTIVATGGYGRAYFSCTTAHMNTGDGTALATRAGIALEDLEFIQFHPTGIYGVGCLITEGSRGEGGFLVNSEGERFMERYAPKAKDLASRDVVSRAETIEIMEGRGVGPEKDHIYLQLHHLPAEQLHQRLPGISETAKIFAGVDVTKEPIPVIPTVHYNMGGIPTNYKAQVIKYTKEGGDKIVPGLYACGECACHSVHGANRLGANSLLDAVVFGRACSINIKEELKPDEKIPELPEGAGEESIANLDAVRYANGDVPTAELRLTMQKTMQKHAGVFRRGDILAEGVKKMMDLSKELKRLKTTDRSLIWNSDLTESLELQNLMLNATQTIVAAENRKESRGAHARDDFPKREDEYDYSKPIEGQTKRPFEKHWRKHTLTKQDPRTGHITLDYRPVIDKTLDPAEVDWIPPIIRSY
T2 sequence (P92506 32-188): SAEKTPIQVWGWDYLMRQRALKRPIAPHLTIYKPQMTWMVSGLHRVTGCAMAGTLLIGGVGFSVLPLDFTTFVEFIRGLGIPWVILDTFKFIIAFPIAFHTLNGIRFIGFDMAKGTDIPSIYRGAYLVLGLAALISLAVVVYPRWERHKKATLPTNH
T2 sequence (O44074 22-282): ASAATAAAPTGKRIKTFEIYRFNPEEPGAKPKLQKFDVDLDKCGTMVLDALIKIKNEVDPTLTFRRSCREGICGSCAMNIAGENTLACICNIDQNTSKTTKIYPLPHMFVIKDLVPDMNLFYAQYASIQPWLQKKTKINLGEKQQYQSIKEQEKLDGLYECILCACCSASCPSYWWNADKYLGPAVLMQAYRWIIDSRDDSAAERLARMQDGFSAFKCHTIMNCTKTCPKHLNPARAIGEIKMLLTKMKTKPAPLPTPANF
T2 sequence (P92507 26-156): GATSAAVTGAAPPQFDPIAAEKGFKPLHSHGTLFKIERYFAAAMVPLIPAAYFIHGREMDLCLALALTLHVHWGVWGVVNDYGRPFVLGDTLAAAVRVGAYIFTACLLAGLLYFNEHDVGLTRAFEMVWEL
Experimental: With regard to the complex II of the Ascaris suum, the purified complex II prepared according to the method of F. Saruta et al. [Stage-specific Isoforms of Complex II (Succinate-Ubiquinone Oxidoreductase) in Mitochondria from the Parasitic Nematode, Ascaris suum: J. Biol. Chem. 270, 928-932, 1995] was used. Succinate dehydrogenase activity of the complex II was measured by changes of maximum absorption, which was specific to the electron acceptor (DCIP), from oxidized form of DCIP to reduced form with the addition of succinate.
(§1) Namely, ubiquinone-2 and DCIP were added to the level of 100 ìM and 70 ìM, respectively, into 50 mM phosphate buffer (pH 7.5); atpenin A4 was added therein; further the complex II was added thereto; then potassium succinate with final concentration of 10 mM was added; and the reaction was started at 25° C. Reaction rate was measured by that the formation rate of reduced form of DCIP (amM^−1 1 cm^−1: 21) which accepted electron from succinate was measured at absorption changes of 600 nm. Activity was indicated by molar numbers of DCIP reduced per minute. Potassium cyanide, final concentration of 10 mM, was added due to necessity for prevention of leakage of reduction activity by inhibiting terminal oxidase.
(§2) With regard to the complex II of the Ascaris suum, the purified complex II prepared according to the same method of example 3 was used. Succinate dehydrogenase activity of the complex II was measured by changes of maximum absorption, which was specific to the electron acceptor (DCIP), from oxidized form of DCIP to reduced form with the addition of succinate. […] Reaction rate was measured by that the formation rate of reduced form of DCIP (amM^−1 1 cm^−1: 21) which accepted electron from succinate was measured at absorption changes of 600 nm. […]
as §2
(§3) With regard to the complex II of the Ascaris suum, the purified complex II prepared according to the same method of example 3 was used. Succinate dehydrogenase activity of the complex II was measured by changes of maximum absorption, which was specific to the electron acceptor (DCIP), from oxidized form of DCIP to reduced form with the addition of succinate. […]

rat liver complex II = biological target: T3, rat liver complex II (Rattus norvegicus, UniProt P21913+Q641Z9+Q6PCT8); assay: Inhibition of succinate dehydrogenase activity of rat liver complex II (DCIP reduction)
T3 construct: from tissue; host or cells: rat liver mitochondria
T3 sequence (Q920L2 35-656 partner): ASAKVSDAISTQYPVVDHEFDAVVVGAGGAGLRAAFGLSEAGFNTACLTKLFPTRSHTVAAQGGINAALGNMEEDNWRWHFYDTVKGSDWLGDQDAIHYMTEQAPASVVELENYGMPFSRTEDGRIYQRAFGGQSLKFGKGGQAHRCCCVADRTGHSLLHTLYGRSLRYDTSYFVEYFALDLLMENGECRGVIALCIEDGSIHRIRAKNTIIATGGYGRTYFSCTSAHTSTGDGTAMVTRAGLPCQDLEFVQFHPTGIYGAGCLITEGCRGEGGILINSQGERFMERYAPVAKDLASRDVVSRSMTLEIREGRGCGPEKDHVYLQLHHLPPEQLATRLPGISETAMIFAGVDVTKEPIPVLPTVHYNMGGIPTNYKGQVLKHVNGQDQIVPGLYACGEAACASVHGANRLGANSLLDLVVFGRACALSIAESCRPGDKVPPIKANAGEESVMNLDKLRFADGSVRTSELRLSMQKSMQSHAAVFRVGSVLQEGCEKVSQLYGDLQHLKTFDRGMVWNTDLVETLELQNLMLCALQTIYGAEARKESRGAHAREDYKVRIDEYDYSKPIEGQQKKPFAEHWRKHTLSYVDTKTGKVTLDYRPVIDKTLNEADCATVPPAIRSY
T3 sequence (P21913 31-282): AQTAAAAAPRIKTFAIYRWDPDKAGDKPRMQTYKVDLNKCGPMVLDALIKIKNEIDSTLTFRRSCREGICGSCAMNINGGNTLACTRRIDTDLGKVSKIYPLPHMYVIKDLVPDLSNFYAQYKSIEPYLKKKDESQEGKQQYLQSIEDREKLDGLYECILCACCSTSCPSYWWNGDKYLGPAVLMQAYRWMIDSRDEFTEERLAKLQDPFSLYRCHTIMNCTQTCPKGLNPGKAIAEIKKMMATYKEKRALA
T3 sequence (Q641Z9 30-169 limits assumed): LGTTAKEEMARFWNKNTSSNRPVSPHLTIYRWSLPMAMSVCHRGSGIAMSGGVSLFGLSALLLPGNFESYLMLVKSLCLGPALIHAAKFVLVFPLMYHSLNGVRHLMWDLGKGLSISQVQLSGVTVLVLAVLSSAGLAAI
T3 sequence (Q6PCT8 57-159): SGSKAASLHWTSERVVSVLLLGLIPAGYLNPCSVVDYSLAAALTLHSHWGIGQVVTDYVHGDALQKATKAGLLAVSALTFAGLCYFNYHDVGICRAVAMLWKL
Experimental: as §1, with “With regard to the complex II of the rat liver, mitochondria prepared according to the same method described in the referential example 1 was used. Succinate dehydrogenase activity of the complex II was measured by changes of maximum absorption, which was specific to the electron acceptor (DCIP), from oxidized form of DCIP to reduced form with the addition of succinate. Namely,” for “Namely,”
as §2, with “the rat liver, mitochondria” for “the Ascaris suum, the purified complex II”, “method described in the referential” for “method of”, “example 1” for “example 3”
as §2, with “the rat liver, mitochondria” for “the Ascaris suum, the purified complex II”, “method described in the referential” for “method of”, “example 1” for “example 3”
as §3, with “the rat liver, mitochondria” for “the Ascaris suum, the purified complex II”, “method described in the referential” for “method of”, “example 1” for “example 3”

[2] = bovine heart mitochondria, ubiquinone-2, DCIP, 10 mM succinate, pH 7.5, 25° C., read-out: 50% inhibitory concentration of the complex II (IC50), Bovine heart
[3] = purified Ascaris suum complex II, ubiquinone-2, DCIP, 10 mM succinate, pH 7.5, 25° C., read-out: 50% inhibitory concentration of the complex II (IC50), Ascaris suum
[4] = rat liver mitochondria, ubiquinone-2, DCIP, 10 mM succinate, pH 7.5, 25° C., read-out: 50% inhibitory concentration of the complex II (IC50), Rat liver

| Compound | IC50 [1, 2] | IC50 (Ascaris suum complex II; [3]) | IC50 (rat liver complex II; [4]) | IC50 [1] | IC50 (Ascaris suum complex II) | IC50 (rat liver complex II) |
| --- | --- | --- | --- | --- | --- | --- |
| COc1nc(O)c(C(=O)C(C)CC(C)C(C)Cl)c(O)c1OC (centres unmarked) [Atpenin A4, atpenin A4] | 0.011 µM | 0.22 µM | 0.024 µM | – | – | – |
| COc1[nH]c(=O)c(C(=O)C(C)CC(C)C(Cl)CCl)c(O)c1OC (centres unmarked) [Atpenin A5, atpenin A5] | – | – | – | 0.0036 µM | 0.032 µM | 0.0037 µM |
| CCC(C)CC(C)C(=O)c1c(O)nc(OC)c(OC)c1O (centres unmarked) [Atpenin B, atpenin B] | 0.01 µM | 0.05 µM | 0.02 µM | – | – | – |
| CC1=C(C(=O)Nc2ccccc2)SCCO1 [Carboxin, carboxin, reference compound] | 1.1 µM | – | – | – | – | – |
| C/C=C/CC(C)C(=O)c1c(O)c(OC)c(OC)[nH]c1=O (centres unmarked) [Harzianopyridone, harzianopyridone] | 0.017 µM | 2 µM | 0.2 µM | – | – | – |
| O=C(CC(=O)C(F)(F)F)c1cccs1 [Thenoyltrifluoro Aceton, thenoyltrifluoroacetone, reference compound] | 5.8 µM | – | – | – | – | – |
